“And” between values parts separate entries of the source, which are not always exact repeats. Equal values may be shown once.
Target: T1, fluorescein-streptavidin (Streptomyces avidinii, UniProt P22629)
T1 construct: purchased Calbiochem-Novabiochem Corp., La Jolla, Calif; 189734
Test: Fluorescence emission standard curve, streptavidin-fluorescein (evaluation of linker 3)
Conditions: for Fluorescence emission (standard curve): replicates
Text: FIG. 8 is a plot of data from Table 8, derived from evaluation of linker 3;

T1 sequence (P22629 25-183): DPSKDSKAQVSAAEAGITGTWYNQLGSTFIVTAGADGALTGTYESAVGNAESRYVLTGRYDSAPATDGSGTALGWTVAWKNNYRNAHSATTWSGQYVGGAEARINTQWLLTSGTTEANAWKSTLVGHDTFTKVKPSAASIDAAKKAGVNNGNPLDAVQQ

SMILES: O=C(CCCCCNC(=O)CCCCCNC(=O)CCCCC1SCC2NC(=O)NC21)NCCCCCNC(=O)CCCCCNC(=O)CCCCC1SCC2NC(=O)NC21 (stereo not shown) [Linker 3]
- Fluorescence emission (standard curve), mean of Columns 1-3 ([ST/FL] 7.4 pmol): 150.37
- Fluorescence emission (standard curve), sum of Columns 1-2 ([ST/FL] 7.4 pmol): 283.8
- Fluorescence emission (standard curve), sum of Columns 1-3 ([ST/FL] 7.4 pmol): 451.1
- Fluorescence emission (standard curve) ([ST/FL] 7.4 pmol): 112.81 and 170.99 and 167.3
- Fluorescence emission (standard curve), mean of Columns 1-3 ([ST/FL] 11.0 pmol): 245.76
- Fluorescence emission (standard curve), sum of Columns 1-2 ([ST/FL] 11.0 pmol): 498.27
- Fluorescence emission (standard curve), sum of Columns 1-3 ([ST/FL] 11.0 pmol): 737.28
- Fluorescence emission (standard curve) ([ST/FL] 11.0 pmol): 270.54 and 227.73 and 239.01
- Fluorescence emission (standard curve), mean of Columns 1-3 ([ST/FL] 15.0 pmol): 281.62
- Fluorescence emission (standard curve), sum of Columns 1-2 ([ST/FL] 15.0 pmol): 566.42
- Fluorescence emission (standard curve), sum of Columns 1-3 ([ST/FL] 15.0 pmol): 844.85
- Fluorescence emission (standard curve) ([ST/FL] 15.0 pmol): 307.82 and 258.6 and 278.43
- Fluorescence emission (standard curve), mean of Columns 1-3 ([ST/FL] 18.0 pmol): 311.00
- Fluorescence emission (standard curve), sum of Columns 1-2 ([ST/FL] 18.0 pmol): 633.01
- Fluorescence emission (standard curve), sum of Columns 1-3 ([ST/FL] 18.0 pmol): 933.0
- Fluorescence emission (standard curve) ([ST/FL] 18.0 pmol): 361.66 and 271.35 and 299.99
- Fluorescence emission (standard curve), mean of Columns 1-3 ([ST/FL] 22.0 pmol): 350.48
- Fluorescence emission (standard curve), sum of Columns 1-2 ([ST/FL] 22.0 pmol): 723.72
- Fluorescence emission (standard curve), sum of Columns 1-3 ([ST/FL] 22.0 pmol): 1051.4
- Fluorescence emission (standard curve) ([ST/FL] 22.0 pmol): 363.91 and 359.81 and 327.71
- Fluorescence emission (standard curve), mean of Columns 1-3 ([ST/FL] 26.0 pmol): 461.85
- Fluorescence emission (standard curve), sum of Columns 1-2 ([ST/FL] 26.0 pmol): 944.08
- Fluorescence emission (standard curve), sum of Columns 1-3 ([ST/FL] 26.0 pmol): 1385.6
- Fluorescence emission (standard curve) ([ST/FL] 26.0 pmol): 496.71 and 447.37 and 441.48
- Fluorescence emission (standard curve), mean of Columns 1-3 ([ST/FL] 29.0 pmol): 472.31
- Fluorescence emission (standard curve), sum of Columns 1-2 ([ST/FL] 29.0 pmol): 1001.7
- Fluorescence emission (standard curve), sum of Columns 1-3 ([ST/FL] 29.0 pmol): 1416.9
- Fluorescence emission (standard curve) ([ST/FL] 29.0 pmol): 495.93 and 505.81 and 415.18
- Fluorescence emission (standard curve), mean of Columns 1-3 ([ST/FL] 36.0 pmol): 567.49
- Fluorescence emission (standard curve), sum of Columns 1-2 ([ST/FL] 36.0 pmol): 1141.1
- Fluorescence emission (standard curve), sum of Columns 1-3 ([ST/FL] 36.0 pmol): 1702.5
- Fluorescence emission (standard curve) ([ST/FL] 36.0 pmol): 569.16 and 571.94 and 561.36
- Fluorescence emission (standard curve), mean of Columns 1-3 ([ST/FL] 45.0 pmol): 697.34
- Fluorescence emission (standard curve), sum of Columns 1-2 ([ST/FL] 45.0 pmol): 1374.6
- Fluorescence emission (standard curve), sum of Columns 1-3 ([ST/FL] 45.0 pmol): 2092.0
- Fluorescence emission (standard curve) ([ST/FL] 45.0 pmol): 688.65 and 685.98 and 717.4
- Fluorescence emission (standard curve), mean of Columns 1-3 ([ST/FL] 60.0 pmol): 847.26
- Fluorescence emission (standard curve), sum of Columns 1-2 ([ST/FL] 60.0 pmol): 1651.9
- Fluorescence emission (standard curve), sum of Columns 1-3 ([ST/FL] 60.0 pmol): 2541.8
- Fluorescence emission (standard curve) ([ST/FL] 60.0 pmol): 837.57 and 816.34 and 889.88
